Test [1] deals with BLM melanoma cells. In words: Chemomigration assay (Boyden's chamber). It is filed as cell-based, human. As to conditions: 10^−6 M pretreatment for 5 days, FBS 5%. As to the method: The assay was performed using a 48-well Boyden's chamber, according to the manufacturer's instruction (Neuroprobe, Cabin John, Md.). Subconfluent BLM cells, grown in culture medium, were pretreated for 5 days with LHRH-A (10^−6 M) and harvested at the end of the treatment. BLM cell suspensions (10^5 cells/50 μL), resuspended in culture medium deprived of FBS, were placed in the open-bottom wells of the upper compartment of the chamber. Each pair of wells were separated by polyvinylpyrrolidone-free polycarbonate porous membrane (8-μm pores) pre-coated with gelatin (0.2 mg/mL in PBS). The chemoattractant (FBS 5%) was placed in the lower compartment of the chamber. The chamber was then kept for 4 h in the cell culture incubator. After that, the cells migrated through the pores, and adhered to the underside of the membrane, were fixed, stained (Diff-Quick kit, DADE, Dudingen, CH) and mounted onto glass slides. For quantitative analysis, six random objective fields of stained cells were counted for each well (8 wells/experimental group) and the mean number of migrating cells/mm^2 was calculated. The data obtained from four independent experiments were compared by ANOVA and Dunnett's test.

Test [2] has as its system BLM melanoma cells. Briefly: Matrigel gel assay (invasion). The format is cell-based, human. The settings on record: 10^−6 M; 4, 8 and 12 days. As to the method:
This dose has been also used in previous papers analyzing the interaction between GnRH agonists and stimulatory growth factors in prostate cancer cells. Subconfluent BLM cells were collected by trypsinization, resuspended in culture medium and seeded in 20 μL (150,000 cells/drop) on the lid of a culture dish. The lid was then placed on a dish filled with 2 mL of culture medium and incubated at 37° C. for 48 h. Matrigel solution (80 μL, 2.7 mg/mL) was pipetted onto the bottom of wells of a 24-well culture dish, and left to set at 37° C. Cell aggregates were transferred over the cushion and then overlaid with additional 20 μL of Matrigel. The aggregates into Matrigel were covered with 400 μL culture medium in the absence or in the presence of LHRH-A (10^−6 M). The aggregates were then observed daily under a light microscope and at the end of the incubation time phase-contrast pictures of the aggregates were taken.

For test [3], the system named is human glioblastoma cell lines U-87MG or U-373MG, Kaposi sarcoma cell lines KSY-1 or KS-SLK, malignant melanoma cell line MV3 or BLM, medulloblastoma cell line …. Briefly: Proliferation assay on cell cultures (Example 3). As to conditions: cell lines of Example 3 treated with the substance. The format is cell-based.
Test [4] relates to BLM melanoma tumor cell line implant. The format is in vivo, nude mice. As for the experimental part:
In one series of experiments, nude mice bearing human melanoma tumor cell line xenotransplants were treated for two weeks with 100 μg of Goserelin daily, while a second group of mice was administered 200 μg of Goserelin daily, with an additional daily supplement given by subcutaneous injection. […] The in vivo tumor growth has three predominant characteristics: mitotic activity, dedifferentiation, and infiltration of cells into the surrounding tissue and vessels.
Results for this study are depicted in FIG. 21. These observations are in line with the previously shown inhibition of Matrigel invasion of BLM cells under Zoladex treatment, as described above. A histological investigation of the tumor before and after treatment has confirmed this finding (results not shown).
In another set of experiments, ZOLADEX® treatment was administered to mice for a period of four to eight weeks, with an additional GnRH antagonist treatment to avoid any tumor proliferation (i.e. flare up) following cessation of the therapy and to avoid tumor cell receptor depletion.

The subject of test [5] is malignant gliomas U-87MG and U-373MG. In words: In vivo study with tumor-implanted nude mice (Example 4). The settings on record: daily dosages. As for the experimental part: An effect of the treatment of tumor-implanted nude mice (Pinski et al., supra) each with one of the GnRH agonists Buserelin, Triptorelin, Goserelin, and Leuprorelin and each with one of the GnRH antagonists Cetrorelix® (SB-75), Antarelix®, Antide®, and Ramorelix® on the growth of malignant gliomas U-87MG and U-373MG was carried out using daily dosages and controls in nude mice using analysis techniques described for the determination of the efficacy of similar peptides in Pinski et al., supra.

For the compound `CC(C)C[C@H](NC(=O)[C@@H](COC(C)(C)C)NC(=O)[C@H](Cc1ccc(O)cc1)NC(=O)[C@H](CO)NC(=O)[C@H](Cc1c[nH]c2ccccc12)NC(=O)[C@H](Cc1cnc[nH]1)NC(=O)[C@@H]1CCC(=O)N1)C(=O)N[C@@H](CCCNC(=N)N)C(=O)N1CCC[C@H]1C(=O)NNC(N)=O` [ZOLADEX®, D-Ser(tBu)^6Aza-Gly-LHRH], the “number of cells that migrate in response to the chemoattractant” value in the test on BLM melanoma cells [1] is “significantly decreased”. The “migration of the cells through the Matrigel” value in the test with BLM melanoma cells [2] is on record as “completely abrogates”. Also, in test [3], the “anti-proliferative effects in tumor cells” value is “Significant anti-proliferative effects”. The “reduction in tumor weight” value in test [4] (100 μg or 200 μg daily, after two weeks, both groups) amounted to 50%. The “persistence of tumor growth inhibition despite cessation of treatment” value in test [4] (100 μg/day or 200 μg/day) is on record as ~4 weeks. Besides, the “growth inhibitory effect compared with 100 μg/day” value in test [4] (200 μg/day) was “even more powerful growth inhibitory effect”. In addition, the “tumor growth once treatment has stopped” value in test [4] (after two weeks (16 days) of treatment) is listed as “rebound of tumor growth (flare up) is observed”. Also, the “inhibition of BLM cell growth” value in test [4] (mouse, in vivo) is “about 50%”. In addition, the “growth of malignant gliomas” value in test [5] was “Significant growth-inhibiting effects”.

The values are drawn from US8962558B2, “Methods for reducing GnRH-positive tumor cell proliferation using the GnRH antagonist IN3” (priority 1997, dated 2015).
